{"source": "PubChem BioAssay AID1963848", "about": "(Molecular Pharmacology Branch, DTP, NCI, 2024);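 further: spheroids exposed to drugs for seven days before readout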;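 on viability, T/C: percent viability relative to DMSO vehicle control taken as 100%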", "test_system": "379773-124-R-J2-PDC spheroid viability", "test": "Anticancer human tumor 379773-124-R-J2-PDC patient-derived endometrial carcinoma cell line growth inhibition [POLQ]", "details": "spheroids with HUVEC and MSC; for IC50: curve of first compound; for viability, T/C: stronger effect = lower value", "outline": "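PDC + HUVEC + MSC complex spheroids; POLQ inhibitors ± partner drugs; top conc. at/near clinical Cmax, else 10 microM (SN-38 1 microM), half-log dilutions; 37 degrees C, 5% CO2.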"}
{"smiles": "CC1COCCN1c1cc(C2(O)CC3CCC(C2)O3)c2cnn(-c3ccn[nH]3)c2n1", "note": "(configuration not stated) + Nc1ccc(C#CCN(C(=O)Cc2ncc(C(F)(F)F)cc2C(F)(F)F)c2ccc(F)cc2)nn1", "values": [{"measurement": "IC50", "setting": "second compound 0.0316 µM", "result": 128, "unit": "nM"}, {"measurement": "IC50", "setting": "second compound 0.1 µM", "result": 104, "unit": "nM"}, {"measurement": "IC50", "setting": "second compound 0.316 µM", "result": 121, "unit": "nM"}, {"measurement": "IC50", "setting": "second compound 1 µM", "result": 107, "unit": "nM"}, {"measurement": "IC50", "setting": "second compound 3.16 µM", "result": 126, "unit": "nM"}, {"measurement": "IC50", "setting": "second compound 10 µM", "result": 114, "unit": "nM"}, {"measurement": "viability, T/C", "setting": "second compound 0.0316 µM, first compound 0.0316 µM", "result": 110, "unit": "%"}, {"measurement": "viability, T/C", "setting": "second compound 0.0316 µM, first compound 0.1 µM", "result": 59.9, "unit": "%"}, {"measurement": "viability, T/C", "setting": "second compound 0.0316 µM, first compound 0.316 µM", "result": 13.5, "unit": "%"}, {"measurement": "viability, T/C", "setting": "second compound 0.0316 µM, first compound 1 µM", "result": 12.8, "unit": "%"}, {"measurement": "viability, T/C", "setting": "second compound 0.0316 µM, first compound 3.16 µM", "result": 11.2, "unit": "%"}, {"measurement": "viability, T/C", "setting": "second compound 0.0316 µM, first compound 10 µM", "result": 4.19, "unit": "%"}, {"measurement": "viability, T/C", "setting": "second compound 0.1 µM, first compound 0.0316 µM", "result": 92, "unit": "%"}, {"measurement": "viability, T/C", "setting": "second compound 0.1 µM, first compound 0.1 µM", "result": 51.4, "unit": "%"}, {"measurement": "viability, T/C", "setting": "second compound 0.1 µM, first compound 0.316 µM", "result": 16, "unit": "%"}, {"measurement": "viability, T/C", "setting": "second compound 0.1 µM, first compound 1 µM", "result": 14, "unit": "%"}, {"measurement": "viability, T/C", "setting": "second compound 0.1 µM, first compound 3.16 µM", "result": 10.2, "unit": "%"}, {"measurement": "viability, T/C", "setting": "second compound 0.1 µM, first compound 10 µM", "result": 3.29, "unit": "%"}, {"measurement": "viability, T/C", "setting": "second compound 0.316 µM, first compound 0.0316 µM", "result": 83.2, "unit": "%"}, {"measurement": "viability, T/C", "setting": "second compound 0.316 µM, first compound 0.1 µM", "result": 56.6, "unit": "%"}, {"measurement": "viability, T/C", "setting": "second compound 0.316 µM, first compound 0.316 µM", "result": 16.1, "unit": "%"}, {"measurement": "viability, T/C", "setting": "second compound 0.316 µM, first compound 1 µM", "result": 11.8, "unit": "%"}, {"measurement": "viability, T/C", "setting": "second compound 0.316 µM, first compound 3.16 µM", "result": 10.4, "unit": "%"}, {"measurement": "viability, T/C", "setting": "second compound 0.316 µM, first compound 10 µM", "result": 4.27, "unit": "%"}, {"measurement": "viability, T/C", "setting": "second compound 1 µM, first compound 0.0316 µM", "result": 86.9, "unit": "%"}, {"measurement": "viability, T/C", "setting": "second compound 1 µM, first compound 0.1 µM", "result": 52.5, "unit": "%"}, {"measurement": "viability, T/C", "setting": "second compound 1 µM, first compound 0.316 µM", "result": 16.4, "unit": "%"}, {"measurement": "viability, T/C", "setting": "second compound 1 µM, first compound 1 µM", "result": 13.6, "unit": "%"}, {"measurement": "viability, T/C", "setting": "second compound 1 µM, first compound 3.16 µM", "result": 8.92, "unit": "%"}, {"measurement": "viability, T/C", "setting": "second compound 1 µM, first compound 10 µM", "result": 3.67, "unit": "%"}, {"measurement": "viability, T/C", "setting": "second compound 3.16 µM, first compound 0.0316 µM", "result": 83, "unit": "%"}, {"measurement": "viability, T/C", "setting": "second compound 3.16 µM, first compound 0.1 µM", "result": 59.3, "unit": "%"}, {"measurement": "viability, T/C", "setting": "second compound 3.16 µM, first compound 0.316 µM", "result": 12.5, "unit": "%"}, {"measurement": "viability, T/C", "setting": "second compound 3.16 µM, first compound 1 µM", "result": 11.8, "unit": "%"}, {"measurement": "viability, T/C", "setting": "second compound 3.16 µM, first compound 3.16 µM", "result": 9.65, "unit": "%"}, {"measurement": "viability, T/C", "setting": "second compound 3.16 µM, first compound 10 µM", "result": 3.56, "unit": "%"}, {"measurement": "viability, T/C", "setting": "second compound 10 µM, first compound 0.0316 µM", "result": 82.8, "unit": "%"}, {"measurement": "viability, T/C", "setting": "second compound 10 µM, first compound 0.1 µM", "result": 54.5, "unit": "%"}, {"measurement": "viability, T/C", "setting": "second compound 10 µM, first compound 0.316 µM", "result": 18.5, "unit": "%"}, {"measurement": "viability, T/C", "setting": "second compound 10 µM, first compound 1 µM", "result": 14.6, "unit": "%"}, {"measurement": "viability, T/C", "setting": "second compound 10 µM, first compound 3.16 µM", "result": 9.99, "unit": "%"}, {"measurement": "viability, T/C", "setting": "second compound 10 µM, first compound 10 µM", "result": 3.04, "unit": "%"}]}
